Measurements taken from ChEMBL document CHEMBL5291721, “A preclinical secondary pharmacology resource illuminates target-adverse drug reaction associations of marketed drugs” (Nat Commun, 2023).

Experiments:
[1] = biological target: T1, 5-hydroxytryptamine receptor 2A (Homo sapiens, UniProt P28223); assay type: functional, cell-based
[2] = biological target: Histamine H1 receptor (Homo sapiens, UniProt P35367)
[3] = biological target: T2, Gamma-aminobutyric acid receptor subunit alpha-1/alpha-2/beta-2/gamma-2 (Homo sapiens, UniProt P14867+P18507+P47869+P47870); assay type: functional, cell-based
[4] = biological target: Muscarinic acetylcholine receptor M3 (Homo sapiens, UniProt P20309)
Sequence of Muscarinic acetylcholine receptor M3 (P20309 whole entry): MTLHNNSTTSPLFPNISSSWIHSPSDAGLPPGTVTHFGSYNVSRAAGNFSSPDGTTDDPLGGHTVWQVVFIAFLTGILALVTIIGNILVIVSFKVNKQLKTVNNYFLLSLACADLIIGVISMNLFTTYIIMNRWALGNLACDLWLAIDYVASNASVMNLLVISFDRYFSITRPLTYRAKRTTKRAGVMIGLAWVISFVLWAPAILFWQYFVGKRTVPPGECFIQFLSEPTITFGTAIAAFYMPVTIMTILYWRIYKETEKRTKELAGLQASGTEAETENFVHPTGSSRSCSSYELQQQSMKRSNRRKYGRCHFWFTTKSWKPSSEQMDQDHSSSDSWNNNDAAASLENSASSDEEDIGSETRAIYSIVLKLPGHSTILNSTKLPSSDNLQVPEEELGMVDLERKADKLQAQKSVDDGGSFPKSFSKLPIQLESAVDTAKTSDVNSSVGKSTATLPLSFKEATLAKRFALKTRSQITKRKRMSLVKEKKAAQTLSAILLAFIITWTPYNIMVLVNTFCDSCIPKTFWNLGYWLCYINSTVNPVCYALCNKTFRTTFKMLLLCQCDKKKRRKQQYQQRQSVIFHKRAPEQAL

[5] = biological target: T1, 5-hydroxytryptamine receptor 2A; assay type: functional, cell-based; remark: listed apart in the source
[6] = biological target: Sodium channel protein type 5 subunit alpha (Homo sapiens, UniProt Q14524); assay type: functional, cell-based
Sequence of Sodium channel protein type 5 subunit alpha (Q14524 whole entry): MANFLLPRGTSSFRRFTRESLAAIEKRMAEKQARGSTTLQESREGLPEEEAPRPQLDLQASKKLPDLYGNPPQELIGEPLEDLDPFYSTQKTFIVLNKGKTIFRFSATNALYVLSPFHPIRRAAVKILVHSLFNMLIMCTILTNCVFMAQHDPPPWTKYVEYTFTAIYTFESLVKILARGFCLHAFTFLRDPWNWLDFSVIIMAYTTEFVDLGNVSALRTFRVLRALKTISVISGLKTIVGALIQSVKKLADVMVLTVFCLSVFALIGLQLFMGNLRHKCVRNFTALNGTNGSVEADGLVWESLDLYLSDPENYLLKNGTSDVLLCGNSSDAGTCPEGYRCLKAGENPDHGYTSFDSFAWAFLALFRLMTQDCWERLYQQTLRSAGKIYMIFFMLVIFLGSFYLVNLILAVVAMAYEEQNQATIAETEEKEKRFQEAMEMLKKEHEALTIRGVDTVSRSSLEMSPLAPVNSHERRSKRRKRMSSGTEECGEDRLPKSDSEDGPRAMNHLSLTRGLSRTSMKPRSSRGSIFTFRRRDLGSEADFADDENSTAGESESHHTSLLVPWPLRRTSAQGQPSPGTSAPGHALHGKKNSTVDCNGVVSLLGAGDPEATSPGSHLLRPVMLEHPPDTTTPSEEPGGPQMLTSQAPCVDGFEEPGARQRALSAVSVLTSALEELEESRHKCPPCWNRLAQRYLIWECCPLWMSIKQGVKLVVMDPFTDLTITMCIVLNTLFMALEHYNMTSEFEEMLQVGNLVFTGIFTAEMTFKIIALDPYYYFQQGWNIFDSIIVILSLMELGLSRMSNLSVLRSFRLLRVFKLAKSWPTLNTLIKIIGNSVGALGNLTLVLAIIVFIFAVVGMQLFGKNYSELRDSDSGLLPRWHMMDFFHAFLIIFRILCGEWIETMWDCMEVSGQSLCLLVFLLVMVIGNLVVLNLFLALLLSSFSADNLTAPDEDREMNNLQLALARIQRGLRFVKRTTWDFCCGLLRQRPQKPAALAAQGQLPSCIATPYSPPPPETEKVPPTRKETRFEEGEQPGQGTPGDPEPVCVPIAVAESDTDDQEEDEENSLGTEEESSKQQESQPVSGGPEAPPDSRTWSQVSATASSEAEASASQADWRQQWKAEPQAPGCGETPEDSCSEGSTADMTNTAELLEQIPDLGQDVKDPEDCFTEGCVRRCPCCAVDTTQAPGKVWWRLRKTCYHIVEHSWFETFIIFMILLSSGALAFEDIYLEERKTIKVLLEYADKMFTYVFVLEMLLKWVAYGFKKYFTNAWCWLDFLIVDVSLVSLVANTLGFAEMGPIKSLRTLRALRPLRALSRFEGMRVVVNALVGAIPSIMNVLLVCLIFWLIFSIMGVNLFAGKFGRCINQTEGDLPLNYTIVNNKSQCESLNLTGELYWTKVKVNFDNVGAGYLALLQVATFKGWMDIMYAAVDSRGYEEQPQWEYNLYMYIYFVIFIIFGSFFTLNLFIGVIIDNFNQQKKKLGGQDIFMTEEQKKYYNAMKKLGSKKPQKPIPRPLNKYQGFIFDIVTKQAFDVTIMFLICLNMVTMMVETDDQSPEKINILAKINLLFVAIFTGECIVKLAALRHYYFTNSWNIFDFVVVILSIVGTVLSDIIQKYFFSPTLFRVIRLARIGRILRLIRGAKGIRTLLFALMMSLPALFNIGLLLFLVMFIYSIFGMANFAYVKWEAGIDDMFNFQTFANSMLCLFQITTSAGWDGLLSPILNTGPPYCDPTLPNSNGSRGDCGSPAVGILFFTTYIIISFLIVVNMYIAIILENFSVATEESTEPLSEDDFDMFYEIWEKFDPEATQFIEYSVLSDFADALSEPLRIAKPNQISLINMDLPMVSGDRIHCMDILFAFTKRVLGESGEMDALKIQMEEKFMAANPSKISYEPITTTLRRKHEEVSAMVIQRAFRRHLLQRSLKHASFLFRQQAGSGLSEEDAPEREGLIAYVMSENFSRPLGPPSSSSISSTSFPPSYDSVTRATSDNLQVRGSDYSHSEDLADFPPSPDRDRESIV

[7] = biological target: T3, Endothelin-1 receptor (Homo sapiens, UniProt P25101)
T3 sequence (P25101 whole entry): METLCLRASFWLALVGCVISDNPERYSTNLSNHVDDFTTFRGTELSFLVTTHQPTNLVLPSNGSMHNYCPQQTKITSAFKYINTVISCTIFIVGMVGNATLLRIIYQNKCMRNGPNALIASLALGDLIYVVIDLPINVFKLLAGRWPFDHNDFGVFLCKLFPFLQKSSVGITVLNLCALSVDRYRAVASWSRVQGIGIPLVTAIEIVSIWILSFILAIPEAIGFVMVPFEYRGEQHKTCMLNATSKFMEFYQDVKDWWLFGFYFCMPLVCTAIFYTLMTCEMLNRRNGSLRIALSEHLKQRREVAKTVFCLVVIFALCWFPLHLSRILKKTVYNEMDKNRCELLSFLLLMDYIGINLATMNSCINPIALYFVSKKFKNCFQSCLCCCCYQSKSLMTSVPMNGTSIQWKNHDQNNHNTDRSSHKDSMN

[8] = biological target: T4, Muscarinic acetylcholine receptor M1 (Homo sapiens, UniProt P11229); assay type: functional
T4 sequence (P11229 whole entry): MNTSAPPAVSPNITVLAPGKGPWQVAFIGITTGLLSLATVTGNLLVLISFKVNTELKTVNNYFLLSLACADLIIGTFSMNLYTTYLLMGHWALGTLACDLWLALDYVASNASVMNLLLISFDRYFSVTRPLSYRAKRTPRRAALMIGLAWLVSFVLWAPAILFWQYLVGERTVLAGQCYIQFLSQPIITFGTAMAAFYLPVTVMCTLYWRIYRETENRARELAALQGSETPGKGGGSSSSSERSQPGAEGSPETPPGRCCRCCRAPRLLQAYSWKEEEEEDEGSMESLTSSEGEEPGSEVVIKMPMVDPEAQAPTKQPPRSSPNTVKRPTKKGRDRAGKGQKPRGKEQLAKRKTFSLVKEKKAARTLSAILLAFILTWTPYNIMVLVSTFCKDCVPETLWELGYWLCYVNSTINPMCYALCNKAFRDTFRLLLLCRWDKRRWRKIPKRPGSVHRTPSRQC

[9] = biological target: T5, Adenosine receptor A1 (Homo sapiens, UniProt P30542)
T5 sequence (P30542 whole entry): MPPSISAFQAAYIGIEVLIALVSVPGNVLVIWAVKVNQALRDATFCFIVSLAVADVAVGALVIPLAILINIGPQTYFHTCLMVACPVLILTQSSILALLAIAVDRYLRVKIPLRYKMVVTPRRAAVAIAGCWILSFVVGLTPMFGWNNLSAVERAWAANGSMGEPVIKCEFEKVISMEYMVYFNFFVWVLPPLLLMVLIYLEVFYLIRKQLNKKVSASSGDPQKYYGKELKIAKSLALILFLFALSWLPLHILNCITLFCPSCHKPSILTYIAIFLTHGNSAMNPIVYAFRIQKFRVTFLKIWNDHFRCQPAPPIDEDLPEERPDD

[10] = biological target: Voltage-dependent N-type calcium channel subunit alpha-1B (Rattus norvegicus, UniProt Q02294); assay type: functional
[11] = biological target: Beta-3 adrenergic receptor (Homo sapiens, UniProt P13945)
Sequence of Beta-3 adrenergic receptor (P13945 whole entry): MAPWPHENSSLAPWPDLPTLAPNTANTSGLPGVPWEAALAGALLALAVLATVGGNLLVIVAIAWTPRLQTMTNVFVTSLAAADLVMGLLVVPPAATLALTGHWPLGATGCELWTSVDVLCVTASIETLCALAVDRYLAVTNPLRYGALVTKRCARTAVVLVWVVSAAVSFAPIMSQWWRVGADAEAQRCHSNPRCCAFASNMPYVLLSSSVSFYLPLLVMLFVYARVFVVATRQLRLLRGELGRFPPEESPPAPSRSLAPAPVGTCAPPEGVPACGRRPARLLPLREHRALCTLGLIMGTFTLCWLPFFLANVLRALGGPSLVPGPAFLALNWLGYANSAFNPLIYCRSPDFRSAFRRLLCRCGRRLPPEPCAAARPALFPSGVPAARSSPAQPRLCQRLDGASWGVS

[12] = biological target: T6, Alpha-1A adrenergic receptor (Homo sapiens, UniProt P35348)
T6 sequence (P35348 whole entry): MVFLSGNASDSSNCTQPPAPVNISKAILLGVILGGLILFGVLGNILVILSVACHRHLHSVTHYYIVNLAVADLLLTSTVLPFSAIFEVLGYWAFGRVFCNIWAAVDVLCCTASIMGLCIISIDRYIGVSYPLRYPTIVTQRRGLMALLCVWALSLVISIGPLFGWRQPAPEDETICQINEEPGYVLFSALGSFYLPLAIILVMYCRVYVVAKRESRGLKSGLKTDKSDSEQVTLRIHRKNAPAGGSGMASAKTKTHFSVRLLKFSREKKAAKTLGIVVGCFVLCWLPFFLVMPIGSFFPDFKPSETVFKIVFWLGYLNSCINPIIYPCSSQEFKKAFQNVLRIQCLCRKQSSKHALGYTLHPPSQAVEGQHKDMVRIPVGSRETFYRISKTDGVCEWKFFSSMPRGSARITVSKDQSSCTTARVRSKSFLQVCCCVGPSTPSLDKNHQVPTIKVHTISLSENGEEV

[13] = biological target: Histamine H2 receptor (Homo sapiens, UniProt P25021)
Sequence of Histamine H2 receptor (P25021 whole entry): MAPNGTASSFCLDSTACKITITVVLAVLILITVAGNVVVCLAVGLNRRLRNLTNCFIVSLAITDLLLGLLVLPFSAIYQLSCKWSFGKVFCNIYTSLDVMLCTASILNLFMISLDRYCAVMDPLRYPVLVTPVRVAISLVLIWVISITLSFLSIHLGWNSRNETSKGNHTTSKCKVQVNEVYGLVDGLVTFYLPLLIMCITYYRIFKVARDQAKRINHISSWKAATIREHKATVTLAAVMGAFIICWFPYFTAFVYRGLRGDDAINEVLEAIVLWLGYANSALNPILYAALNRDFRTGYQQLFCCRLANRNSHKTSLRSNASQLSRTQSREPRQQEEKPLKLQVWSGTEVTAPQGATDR

[14] = biological target: T2, Gamma-aminobutyric acid receptor subunit alpha-1/alpha-2/beta-2/gamma-2; assay type: protein-complex assay
Further: assay procedure not described here.

Sequence of Histamine H1 receptor (P35367 whole entry): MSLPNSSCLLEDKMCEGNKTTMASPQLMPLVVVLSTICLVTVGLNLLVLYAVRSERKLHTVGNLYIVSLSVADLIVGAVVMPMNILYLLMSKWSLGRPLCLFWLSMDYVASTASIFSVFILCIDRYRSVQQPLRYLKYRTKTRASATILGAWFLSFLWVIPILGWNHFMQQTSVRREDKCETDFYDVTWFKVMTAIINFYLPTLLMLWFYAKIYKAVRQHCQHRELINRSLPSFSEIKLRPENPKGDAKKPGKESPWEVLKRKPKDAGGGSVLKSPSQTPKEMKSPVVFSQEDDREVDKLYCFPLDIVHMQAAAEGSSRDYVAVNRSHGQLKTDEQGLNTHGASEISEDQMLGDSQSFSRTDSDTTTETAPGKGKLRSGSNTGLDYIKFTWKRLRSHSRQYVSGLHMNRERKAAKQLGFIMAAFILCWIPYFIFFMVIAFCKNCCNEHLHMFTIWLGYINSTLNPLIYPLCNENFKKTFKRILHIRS
T1 sequence (P28223 whole entry): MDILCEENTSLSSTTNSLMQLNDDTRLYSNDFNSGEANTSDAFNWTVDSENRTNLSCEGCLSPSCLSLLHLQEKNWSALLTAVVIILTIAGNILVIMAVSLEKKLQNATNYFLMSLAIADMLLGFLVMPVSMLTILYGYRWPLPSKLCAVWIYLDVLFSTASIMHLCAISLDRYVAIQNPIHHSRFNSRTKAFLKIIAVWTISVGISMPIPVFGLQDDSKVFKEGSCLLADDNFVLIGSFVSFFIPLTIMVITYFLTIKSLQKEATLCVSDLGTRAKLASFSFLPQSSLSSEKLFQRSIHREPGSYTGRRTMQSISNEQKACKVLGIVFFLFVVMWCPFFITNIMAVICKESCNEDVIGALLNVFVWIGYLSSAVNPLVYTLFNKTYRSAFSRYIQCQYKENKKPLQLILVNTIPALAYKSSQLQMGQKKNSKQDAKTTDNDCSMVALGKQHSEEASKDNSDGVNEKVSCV

## CN(C)C/C=C/C(=O)Nc1cc2c(Nc3ccc(F)c(Cl)c3)ncnc2cc1O[C@H]1CCOC1 [AFATINIB]
[1]
  AC50: > 30 µM
[2]
  AC50: > 30 µM
[3]
  AC50: > 30 µM
[4]
  AC50: > 30 µM
[5]
  AC50: > 30 µM
[6]
  AC50: > 50 µM
[7]
  AC50: > 30 µM
[8]
  AC50: > 30 µM

## CC1=C(C(=O)OC(C)C)C(c2cccc([N+](=O)[O-])c2)C(C(=O)OC2CN(C(c3ccccc3)c3ccccc3)C2)=C(N)N1 (stereo not drawn) [AZELNIDIPINE]
[1]
  AC50: > 30 µM
[2]
  AC50: > 30 µM
[4]
  AC50: > 30 µM
[5]
  AC50: > 30 µM
[6]
  AC50: > 50 µM
[7]
  AC50: > 30 µM
[8]
  AC50: > 30 µM

## O=C(/C=C/c1cccc(S(=O)(=O)Nc2ccccc2)c1)NO [BELINOSTAT]
[9]
  AC50: > 30 µM
[10]
  AC50: > 10 µM
[2]
  AC50: > 10 µM
[4]
  AC50: > 30 µM
[11]
  AC50: > 30 µM
[7]
  AC50: > 10 µM
[12]
  AC50: > 10 µM
[8]
  AC50: > 10 µM
[13]
  AC50: > 10 µM

## CC(O)(CS(=O)(=O)c1ccc(F)cc1)C(=O)Nc1ccc(C#N)c(C(F)(F)F)c1 (stereo not drawn) [BICALUTAMIDE]
[9]
  AC50: > 30 µM
[10]
  AC50: > 10 µM
[11]
  AC50: > 30 µM
[6]
  AC50: > 30 µM
[7]
  AC50: > 30 µM
[12]
  AC50: > 10 µM
[13]
  AC50: > 10 µM

## O=C(O)COCCN1CCN(C(c2ccccc2)c2ccc(Cl)cc2)CC1 (stereo not drawn) [CETIRIZINE]
[10]
  AC50: > 10 µM
[4]
  AC50: > 10 µM
[11]
  AC50: > 30 µM
[6]
  AC50: > 30 µM
[7]
  AC50: > 30 µM
[12]
  AC50: > 10 µM

## NC[C@H]1CC[C@H](C(=O)Oc2ccc(CCC(=O)O)cc2)CC1 [CETRAXATE]
[9]
  AC50: > 30 µM
[3]
  AC50: > 30 µM

## C[C@H](CCC(=O)O)[C@H]1CC[C@H]2[C@@H]3[C@H](O)C[C@@H]4C[C@H](O)CC[C@]4(C)[C@H]3C[C@H](O)[C@]12C [CHOLIC ACID]
[14]
  AC50: > 30 µM
[6]
  AC50: > 50 µM

## CC(=O)O[C@]1(C(C)=O)CC[C@H]2[C@@H]3C=C(Cl)C4=CC(=O)[C@@H]5C[C@@H]5[C@]4(C)[C@H]3CC[C@@]21C [CYPROTERONE ACETATE]
[9]
  AC50: > 30 µM
[10]
  AC50: > 10 µM
[11]
  AC50: > 30 µM
[13]
  AC50: > 10 µM

## C[C@@H]1C[C@H]2[C@@H]3C[C@H](F)C4=CC(=O)C=C[C@]4(C)[C@@]3(F)[C@@H](O)C[C@]2(C)[C@@]1(OC(=O)c1ccco1)C(=O)SCF [FLUTICASONE FUROATE]
[9]
  AC50: > 30 µM
[10]
  AC50: > 10 µM
[2]
  AC50: > 10 µM
[4]
  AC50: > 30 µM
[7]
  AC50: > 10 µM
[12]
  AC50: > 10 µM
[8]
  AC50: > 10 µM
[13]
  AC50: > 10 µM

## CCOC(=O)C1=C(C)NC(C)=C(C(=O)OCC)C1c1ccccc1/C=C/C(=O)OC(C)(C)C [LACIDIPINE]
[6]
  AC50: > 50 µM
[7]
  AC50: > 30 µM

## O=C(CCC/C=C\C[C@@H]1[C@@H](CC[C@@H](O)CCc2ccccc2)[C@H](O)C[C@@H]1O)OCCCCO[N+](=O)[O-] [LATANOPROSTENE BUNOD]
[9]
  AC50: > 30 µM

## COC(=O)C[C@](O)(CCCC(C)(C)O)C(=O)O[C@@H]1C(OC)=C[C@]23CCCN2CCc2cc4c(cc2[C@H]13)OCO4 [OMACETAXINE MEPESUCCINATE]
[9]
  AC50: > 30 µM

## Cc1cccc(C)c1NC(=O)CC12CCCN1CCC2 [PILSICAINIDE]
[1]
  AC50: > 30 µM
[2]
  AC50: > 30 µM
[4]
  AC50: > 30 µM
[5]
  AC50: > 30 µM
[6]
  AC50: > 50 µM
[7]
  AC50: > 30 µM
[8]
  AC50: > 30 µM

## COc1cc(C)c2c(Oc3cccc(C(F)(F)F)c3)c(OC)cc(NC(C)CCCN)c2n1 (stereo not drawn) [TAFENOQUINE]
[9]
  AC50: > 30 µM

## O=S1(=O)CCN(CN2CCS(=O)(=O)NC2)CN1 [TAUROLIDINE]
[1]
  AC50: > 30 µM
[9]
  AC50: > 30 µM
[2]
  AC50: 4.6 µM
[3]
  AC50: > 30 µM
[4]
  AC50: > 30 µM
[5]
  AC50: > 30 µM
[8]
  AC50: > 30 µM

## COc1ccc2c(C(=S)N(C)CC(=O)O)cccc2c1C(F)(F)F [TOLRESTAT]
[9]
  AC50: > 30 µM
